From article PMC8836147, “Design, Synthesis and Antifungal/Nematicidal Activity of Novel 1,2,4-Oxadiazole Derivatives Containing Amide Fragments” (International Journal of Molecular Sciences, 2022)
In brackets after ≈: the same amount, converted by molar mass.

What was measured:
B. cinerea = assay: In vitro mycelium growth inhibition test; format: cell-based; details: Botrytis cinerea; 50 μg/mL; mycelial growth; mean ± SD of three replicates; read-out: Inhibition Rate (%) B. cinerea
Protocol: (§1) B. cinerea and S. scleotiorum were kindly provided by the Department of Pesticides, College of Plant Protection, Nanjing Agricultural University (Nanjing, China). All compounds were evaluated for mycelium growth inhibition tests against the two plant pathogenic fungi mentioned in previous reports. These two fungi were inoculated on potato dextrose agar (PDA) plates and were grown in biochemical incubators at 25 ± 1 °C for 2–4 days. The new mycelium was used to determine the antifungal activity. The target compounds were dissolved in 100 µL DMF, and they were then added into the PDA media to make the concentration 50 µg/mL. Mycelia dishes of about 5 mm in diameter were cut from the culture medium. Mycelium were picked up with a sterile inoculation needle, and the sample was inoculated in the middle of a PDA plate in a sterile environment. Afterwards, a preliminary screening of fungal activity was performed. […] Each test was carried out three times. The radial growth of the fungal colonies was gauged and recorded when the diameters of the blank control mycelia reached 5.0–5.5 cm. […] The final data were analyzed using SPSS v.25.0 (IBM, New York, NY, USA). The following formula was used to calculate the fungi inhibition rate. Inhibition rate (%) = [(Mycelium diameter of negative control − Mycelium diameter of treatment)/(Mycelium diameter of negative control − 0.5)] × 100%(1)

S. sclerotiorum = assay: In vitro mycelium growth inhibition test; format: cell-based; details: Sclerotinia sclerotiorum, mycelial growth, mean ± SD of three replicates; for inhibition at 50 µg/mL: 50 μg/mL, read-out: Inhibition Rate (%) S. sclerotiorum; for EC50: read-out: EC50 against S. sclerotiorum
Protocol: as §1

MTT cytotoxicity assay = format: cell-based; details: human, L-02 normal liver cells, L-02 cells
Protocol: The human liver L-02 cells were obtained from the biology laboratory in Key Laboratory of Chemistry for Natural Products of Guizhou Province and Chinese Academy of Sciences (Guiyang, China). The cells were grown in Dulbecco’s Modified Eagle’s Medium (supplemented with 10% (v/v) FBS, 100 U/mL penicillin, and 100 μg/mL streptomycin) at 37 °C in a CO2 incubator (5% CO2 and 95% air, 95% humidity). The effect of some compounds on cell viability was determined with the MTT assay according to the previously published literature. A total of 5000 cells were inoculated in a 96-well plate and three wells of each concentration of test compound were used. A total of 24 h after inoculation, the cells had grown to ~60% confluency, and different concentrations of compounds were added, and then the cells were cultured for 48 h. DMSO was used as the control. A total of 20 μL of MTT solution was added to each well and incubated at 37 °C for 4 h. Formazan crystals were dissolved in 150 μL of DMSO and quantified using a microplate reader (Thermo Scientific, Vario Skan Flash, Shanghai Bio-Gene Technology Co., LTD, Shanghai, China) at 490 nm. The cytotoxicity was calculated according to following formula:Cytotoxicity (%) = [(OCK − OT)/OCK] × 100%(2) where OCK represents the optical density (OD) value of the blank control group, and OT represents the OD value of experimental group.

A. besseyi = assay: microbe, parasite or virus in culture; details: Aphelenchoides besseyi, 48 h, read-out: Corrected Mortality Rate ± SD (%) A. besseyi
Description: (§2) M. incognita (parasitic on tomato plants), A. besseyi (potato dextrose agar–Botrytis cinerea breeding), B. xylophilus (potato dextrose agar–Botrytis cinerea breeding), and C. elegans (nematode growth medium–inactivated Escherichia coli OP50 cultivation) were provided by the Fine Chemical Research and Development Center of Guizhou University (Guizhou, China). The methodology used for the nematocidal bioassays of these target compounds was modified in the light of the conventional methods reported in the previously published literature. The nematicidal activity of the target compounds against four nematodes was determined using 48-well biochemical culture dishes. All of the compounds were dissolved with 100 μL DMF and were diluted with 1% Tween-80 to obtain 200 and 50 μg/mL concentrations for the bioassays. Fosthiazate and tioxazafen were used as positive controls at the same concentrations, and a negative control group was prepared without compounds using the same methodology. An amount of 10 µL of nematode suspension (about 50 nematodes) and 300 µL of the trial solution were added to corresponding hole, and each treatment was set to three repetitions. All of the 48-well plates were placed in a biochemical incubator at 27 °C for dark light culture. […] Corrected mortality (%) = [(mortality of treatment % − mortality of negative control %)/(1 − mortality of negative control %)] × 100%(3)

B. xylophilus = assay: microbe, parasite or virus in culture; details: Bursaphelenchus xylophilus, 48 h, read-out: Corrected Mortality Rate ± SD (%) B. xylophilus
Description: as §2

C. elegans = assay: microbe, parasite or virus in culture; details: 48 h; for mortality at 50 µg/mL / mortality at 200 µg/mL: Caenorhabditis elegans, read-out: Corrected Mortality Rate ± SD (%) C. elegans
Description: as §2

M. incognita = assay: microbe, parasite or virus in culture; details: Meloidogyne incognita, 48 h, read-out: Corrected Mortality Rate ± SD (%) M. incognita
Description: as §2

| SMILES | inhibition at 50 µg/mL (B. cinerea) | inhibition at 50 µg/mL (S. sclerotiorum) | EC50 (S. sclerotiorum) | cytotoxicity at 48 h, 50 μg/mL (MTT cytotoxicity assay) | cytotoxicity at 48 h, 100 μg/mL (MTT cytotoxicity assay) | cytotoxicity at 48 h, 200 μg/mL (MTT cytotoxicity assay) | mortality at 50 µg/mL (A. besseyi) | mortality at 200 µg/mL (A. besseyi) | mortality at 50 µg/mL (B. xylophilus) | mortality at 200 µg/mL (B. xylophilus) | mortality at 50 µg/mL (C. elegans) | mortality at 200 µg/mL (C. elegans) | mortality at 50 µg/mL (M. incognita) | mortality at 200 µg/mL (M. incognita) | Corrected Mortality Rate ± SD (%) C. elegans (C. elegans; 50 µg/mL) | Corrected Mortality Rate ± SD (%) C. elegans (C. elegans; 200 µg/mL) |
| --- | --- | --- | --- | --- | --- | --- | --- | --- | --- | --- | --- | --- | --- | --- | --- | --- |
| O=C(NCCc1ccccn1)c1nc(-c2ccccc2)no1 [Compound F1, 3-Phenyl-N-(2-(pyridin-2-yl)ethyl)-1,2,4-oxadiazole-5-carboxamide] | 24.2 ± 0.2% | 73.2 ± 0.1% | 20.8 ± 0.8 µg/mL (≈ 70.7 µM) | 4.7 ± 4.9% | 10.9 ± 5.9% | 15.4 ± 4.4% | 0% | 6.9 ± 1.2% | 0% | 6.1 ± 1.1% | 51.3 ± 2.2% | 88.7 ± 1.3% | 6.9 ± 2.1% | 43.5 ± 2.3% |  |  |
| O=C(NCc1ccc(F)cc1F)c1nc(-c2ccccc2)no1 [Compound F3, N -(2,4-difluorobenzyl)-3-phenyl-1,2,4-oxadiazole-5-carboxamide] | 56.8 ± 0.1% | 84.8 ± 0.6% | 5.4 ± 0.3 µg/mL (≈ 17.1 µM) | 7.5 ± 3.8% | 17 ± 1.4% | 50.8 ± 3.9% | 0% | 20.1 ± 1.3% | 0% | 26.1 ± 1.2% | 100% | 100% | 13.9 ± 2.1% | 54.9 ± 3.3% | 100.0% | 100.0% |
| O=C(NCCc1ccccn1)c1nc(-c2ccc(Cl)cc2)no1 [Compound F9, 3-(4-chlorophenyl)-N-(2-(pyridin-2-yl)ethyl)-1,2,4-oxadiazole-5-carboxamide] | 26.7 ± 0.5% | 61.1 ± 0.7% | 18.7 ± 0.4 µg/mL (≈ 56.9 µM) | -2.5 ± 0.2% | 7.1 ± 6.5% | 31.5 ± 8.7% | 0% | 12.8 ± 2.3% | 0% | 14.5 ± 2.5% | 62.1 ± 2.2% | 87.6 ± 1.1% | 9.8 ± 2.5% | 56.3 ± 2.4% |  |  |
| O=C(NCCc1ncc(C(F)(F)F)cc1Cl)c1nc(-c2cccs2)no1 [Compound F14] | 36.4 ± 0.2% | 65.2 ± 0.2% | 15.3 ± 1.3 µg/mL (≈ 38 µM) | 18.8 ± 2.5% | 21.4 ± 5% | 39.1 ± 8.4% | 0% | 27 ± 0.8% | 0% | 6.9 ± 1.8% | 70 ± 0.6% | 100% | 0% | 12.3 ± 2.3% |  |  |
| O=C(NCCc1ccccn1)c1nc(-c2ncc(C(F)(F)F)cc2Cl)no1 [Compound F21] | 38.8 ± 0.7% | 35.1 ± 0.1% |  |  |  |  | 0% | 13 ± 0.5% | 0% | 7.1 ± 1.9% | 32.5 ± 2% | 76.8 ± 0.9% | 0% | 23.5 ± 2.4% |  |  |
| O=C(NCCc1ncc(C(F)(F)F)cc1Cl)c1nc(-c2ncc(C(F)(F)F)cc2Cl)no1 [Compound F22] | 45.2 ± 0.9% | 37.6 ± 1.9% |  |  |  |  | 0% | 26.5 ± 2.1% | 0% | 17.1 ± 2.2% | 45.7 ± 2.3% | 80.2 ± 1.5% | 0% | 18.3 ± 1.7% |  |  |
| O=C(NCc1ccc(F)cc1F)c1nc(-c2ncc(C(F)(F)F)cc2Cl)no1 [Compound F23] | 41.5 ± 0.5% | 34.6 ± 0.1% |  |  |  |  | 0% | 21.5 ± 2.2% | 0% | 20.3 ± 1.4% | 10.6 ± 1.2% | 27.6 ± 1.2% | 0% | 19.1 ± 2.2% |  |  |
| O=C(Nc1ccc(Cl)cc1Cl)c1nc(-c2ncc(C(F)(F)F)cc2Cl)no1 [Compound F24] | 38.5 ± 0.5% | 1.8 ± 0.8% |  |  |  |  | 0% | 23.4 ± 1.6% | 0% | 21.2 ± 1.5% | 9.6 ± 1.1% | 24.6 ± 1.4% | 0% | 18.5 ± 1.1% |  |  |
| Cc1nc(C(F)(F)F)c(C(=O)Nc2c(Br)cc(OC(F)(F)F)cc2Br)s1 [Thifluzamide, thifluzamide, reference compound] | 80.3 ± 0.2% | 86.7 ± 0.3% | 4.3 ± 1.7 µg/mL (≈ 8.14 µM) | 33.3 ± 1.8% | 33.7 ± 0.4% | 33.9 ± 1.5% |  |  |  |  |  |  |  |  |  |  |
